Here are results for 19 compounds from patent US20230257372A1 (CHONG KUN DANG PHARMACEUTICAL CORP., priority 2020, published 2023).

One assay concerns the target T1, human recombinant HDAC1 (Homo sapiens, UniProt Q13547).
T1 construct: purchased Enzo Life Science, Inc. BML-SE456
Briefly: HDAC1 enzyme activity inhibition (HDAC Fluorimetric Drug Discovery Kit). The assay is classed as biochemical. The conditions noted are these: human recombinant HDAC1; IC50 calculated with GraphPad Prism; read-out: HDAC1. The method in brief:
(§1)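 Compounds in 5-fold dilution series were incubated with […] enzyme and 10 μM substrate at 30° C for 60 minutes. Fluor de Lys Developer II was then added for 30 minutes to stop the reaction and develop the fluorescent signal.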

In the next assay the target is T2, human recombinant HDAC6 (Homo sapiens, UniProt Q9UBN7).
T2 construct: purchased Calbiochem Inc. 382180
T2 sequence (Q9UBN7 1-1215): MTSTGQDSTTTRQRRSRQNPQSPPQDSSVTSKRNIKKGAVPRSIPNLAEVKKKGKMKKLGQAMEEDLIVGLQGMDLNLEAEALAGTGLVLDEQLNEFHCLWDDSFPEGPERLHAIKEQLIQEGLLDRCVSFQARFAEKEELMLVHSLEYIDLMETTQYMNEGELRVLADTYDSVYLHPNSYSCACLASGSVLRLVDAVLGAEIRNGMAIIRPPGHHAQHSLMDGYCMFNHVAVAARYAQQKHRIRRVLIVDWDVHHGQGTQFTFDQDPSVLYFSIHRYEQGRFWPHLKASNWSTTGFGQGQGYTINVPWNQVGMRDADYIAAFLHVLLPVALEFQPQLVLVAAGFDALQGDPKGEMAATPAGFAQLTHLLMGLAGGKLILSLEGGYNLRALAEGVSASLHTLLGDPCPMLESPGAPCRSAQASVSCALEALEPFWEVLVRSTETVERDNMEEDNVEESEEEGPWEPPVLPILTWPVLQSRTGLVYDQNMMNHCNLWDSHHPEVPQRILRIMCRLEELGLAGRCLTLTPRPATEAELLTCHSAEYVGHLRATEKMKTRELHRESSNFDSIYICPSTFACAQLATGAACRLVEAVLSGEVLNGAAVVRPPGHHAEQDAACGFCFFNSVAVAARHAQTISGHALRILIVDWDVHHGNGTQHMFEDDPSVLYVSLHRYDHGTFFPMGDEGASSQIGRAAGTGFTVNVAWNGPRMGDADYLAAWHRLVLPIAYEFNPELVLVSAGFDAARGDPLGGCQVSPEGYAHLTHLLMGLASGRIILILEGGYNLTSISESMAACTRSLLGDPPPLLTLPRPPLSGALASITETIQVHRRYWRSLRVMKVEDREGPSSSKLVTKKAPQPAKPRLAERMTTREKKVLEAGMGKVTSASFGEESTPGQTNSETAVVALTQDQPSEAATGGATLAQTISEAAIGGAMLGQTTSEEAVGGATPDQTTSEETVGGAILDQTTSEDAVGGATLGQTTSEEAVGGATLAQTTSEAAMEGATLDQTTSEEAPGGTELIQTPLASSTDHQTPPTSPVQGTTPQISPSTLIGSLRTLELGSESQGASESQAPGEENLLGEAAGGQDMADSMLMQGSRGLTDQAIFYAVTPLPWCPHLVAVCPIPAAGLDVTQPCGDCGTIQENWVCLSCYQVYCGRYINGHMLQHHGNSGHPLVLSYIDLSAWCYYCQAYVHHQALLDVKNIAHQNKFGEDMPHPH
Briefly: HDAC6 enzyme activity inhibition (HDAC Fluorimetric Drug Discovery Kit). The assay is classed as biochemical. The conditions noted are these: for HDAC6 selectivity (fold): HDAC1 IC50 / HDAC6 IC50; for IC50: human recombinant HDAC6, IC50 calculated with GraphPad Prism. The method in brief: as §1

T1 sequence (Q13547 whole entry): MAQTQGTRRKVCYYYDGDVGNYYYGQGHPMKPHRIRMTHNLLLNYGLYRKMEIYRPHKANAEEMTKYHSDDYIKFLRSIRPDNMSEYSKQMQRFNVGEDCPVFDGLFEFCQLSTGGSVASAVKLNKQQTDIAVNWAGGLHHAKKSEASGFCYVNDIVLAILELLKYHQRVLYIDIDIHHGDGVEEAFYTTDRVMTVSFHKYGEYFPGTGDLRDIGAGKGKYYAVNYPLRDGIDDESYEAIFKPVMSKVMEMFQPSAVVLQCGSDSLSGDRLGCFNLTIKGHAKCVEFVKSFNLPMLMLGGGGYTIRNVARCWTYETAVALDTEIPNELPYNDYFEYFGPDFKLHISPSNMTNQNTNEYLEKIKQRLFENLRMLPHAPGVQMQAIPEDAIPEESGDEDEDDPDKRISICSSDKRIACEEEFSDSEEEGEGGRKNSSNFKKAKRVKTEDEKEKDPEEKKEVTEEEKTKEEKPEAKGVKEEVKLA

On to `FC(F)c1nnc(-c2ccc(Cn3cc(-c4cccc(N5C[C@@H]6C[C@H]5CN6)c4)nn3)cc2)o1` [Compound 4317, 2-(4-((4-(3-((1S,4S)-2,5-diazabicyclo[2.2.1]heptan-2-yl)phenyl)-1H-1,2,3-triazol-1-yl)methyl)phenyl)-5-(difluoromethyl)-1,3,4-oxadiazole], for which the IC50 on human recombinant HDAC1 is over 50000 nM. Further, on human recombinant HDAC6, the “HDAC6 selectivity (fold)” value is listed as 598 fold and the IC50 is 83.6 nM.

Consider `CN1C[C@@H]2C[C@H]1CN2c1cccc(-c2cn(Cc3ccc(-c4nnc(C(F)F)o4)cc3F)nn2)c1` [Compound 4318, 2-(difluoromethyl)-5-(3-fluoro-4-((4-(3-((1S,4S)-5-methyl-2,5-diazabicyclo[2.2.1]heptan-2-yl)phenyl)-1H-1,2,3-triazol-1-yl)methyl)phenyl)-1,3,4-oxadiazole], for which the IC50 was over 50000 nM on human recombinant HDAC1 and 36.4 nM on human recombinant HDAC6. Further, the “HDAC6 selectivity (fold)” value on human recombinant HDAC6 was 1373 fold.

Turning to `Fc1cc(-c2nnc(C(F)F)o2)ccc1Cn1cc(-c2cccc(N3C[C@@H]4C[C@H]3CN4C3CCC3)c2)nn1` [Compound 4319, 2-(4-((4-(3-((1S, 4S)-5-cyclobutyl-2,5-diazabicyclo[2.2.1]heptan-2-yl)phenyl)-1H-1,2,3-triazol-1-yl)methyl)-3-fluorophenyl)-5-(difluoromethyl)-1,3,4-oxadiazole], the IC50 at human recombinant HDAC1 was over 50000 nM; on human recombinant HDAC6 it was 34 nM. On human recombinant HDAC6, the “HDAC6 selectivity (fold)” value is given as 1470 fold.

As for `CN1C[C@@H]2C[C@H]1CN2c1cccc(-c2cn(Cc3ccc(-c4nnc(C(F)F)o4)cc3)nn2)c1` [Compound 4320, 2-(difluoromethyl)-5-(4-((4-(3-((1S,4S)-5-methyl-2,5-diazabicyclo[2.2.1]heptan-2-yl)phenyl)-1H-1,2,3-triazol-1-yl)methyl)phenyl)-1,3,4-oxadiazole], the IC50 is over 50000 nM on human recombinant HDAC1 and 69.5 nM at human recombinant HDAC6. For the same compound, the “HDAC6 selectivity (fold)” value on human recombinant HDAC6 is reported as 719 fold.

Consider `CC(C)N1C[C@@H]2C[C@H]1CN2c1cccc(-c2cn(Cc3ccc(-c4nnc(C(F)F)o4)cc3)nn2)c1` [Compound 4321, 2-(difluoromethyl)-5-(4-((4-(3-((1S, 4S)-5-isopropyl-2,5-diazabicyclo[2.2.1]heptan-2-yl)phenyl)-1H-1,2,3-triazol-1-yl)methyl)phenyl)-1,3,4-oxadiazole], for which the IC50 was over 50000 nM at human recombinant HDAC1 and 111 nM on human recombinant HDAC6. Also, on human recombinant HDAC6, the “HDAC6 selectivity (fold)” value came to 434 fold.

Take `FC(F)c1nnc(-c2ccc(Cn3cc(-c4cccc(N5C[C@@H]6C[C@H]5CN6C5CCC5)c4)nn3)cc2)o1` [Compound 4322]: the IC50 on human recombinant HDAC1 was over 50000 nM. On human recombinant HDAC6, the “HDAC6 selectivity (fold)” value is on record as 531 fold and the IC50 was 94 nM.

In the case of `CN(C)c1cccc(-c2cn(Cc3ccc(-c4nnc(C(F)F)o4)cc3)nn2)c1` [Compound 4323, 3-(1-(4-(5-(difluoromethyl)-1,3,4-oxadiazol-2-yl)benzyl)-1H-1,2,3-triazol-4-yl)-N,N-dimethylaniline], the IC50 at human recombinant HDAC1 was over 50000 nM. Moreover, on human recombinant HDAC6, the “HDAC6 selectivity (fold)” value is 310 fold and the IC50 was 161 nM.

Take `FC(F)c1nnc(-c2ccc(Cn3cc(-c4cccc(NC5CCCCC5)c4)nn3)cc2)o1` [Compound 4324, N-cyclohexyl-3-(1-(4-(5-(difluoromethyl)-1,3,4-oxadiazol-2-yl)benzyl)-1H-1,2,3-triazol-4-yl)aniline]: the IC50 at human recombinant HDAC1 is over 50000 nM. For the same compound, on human recombinant HDAC6, the “HDAC6 selectivity (fold)” value stood at 170 fold and the IC50 is 294 nM.

Take `FC(F)c1nnc(-c2ccc(Cn3cc(-c4cccc(NC5CCOCC5)c4)nn3)cc2)o1` [Compound 4325, N-(3-(1-(4-(5-(difluoromethyl)-1,3,4-oxadiazol-2-yl)benzyl)-1H-1,2,3-triazol-4-yl)phenyl)tetrahydro-2H-pyran-4-amine]: the IC50 at human recombinant HDAC1 is over 50000 nM. Besides, on human recombinant HDAC6, the “HDAC6 selectivity (fold)” value is 830 fold and the IC50 was 60.2 nM.

For the compound `FC(F)c1nnc(-c2ccc(Cn3cc(-c4cccc(NC5COC5)c4)nn3)cc2)o1` [Compound 4326, N-(3-(1-(4-(5-(difluoromethyl)-1,3,4-oxadiazol-2-yl)benzyl)-1H-1,2,3-triazol-4-yl)phenyl)oxetan-3-amine], the IC50 on human recombinant HDAC1 was over 50000 nM. For the same compound, on human recombinant HDAC6, the “HDAC6 selectivity (fold)” value is given as 889 fold and the IC50 is 56.2 nM.

On to `CC(C)(C)C(=O)Nc1cccc(-c2cn(Cc3ccc(-c4nnc(C(F)F)o4)cc3)nn2)c1` [Compound 4327, N-(3-(1-(4-(5-(difluoromethyl)-1,3,4-oxadiazol-2-yl)benzyl)-1H-1,2,3-triazol-4-yl)phenyl)pivalamide], for which the IC50 on human recombinant HDAC1 is over 50000 nM. Besides, on human recombinant HDAC6, the “HDAC6 selectivity (fold)” value amounted to 1396 fold and the IC50 was 35.8 nM.

For the compound `CC(C)(F)C(=O)Nc1cccc(-c2cn(Cc3ccc(-c4nnc(C(F)F)o4)cc3)nn2)c1` [Compound 4328, N-(3-(1-(4-(5-(difluoromethyl)-1,3,4-oxadiazol-2-yl)benzyl)-1H-1,2,3-triazol-4-yl)phenyl)-2-fluoro-2-methylpropanamide], the IC50 on human recombinant HDAC1 is over 50000 nM; at human recombinant HDAC6, 59.1 nM. Further, the “HDAC6 selectivity (fold)” value at human recombinant HDAC6 amounted to 846 fold.

For `CN(C)CC(=O)Nc1cccc(-c2cn(Cc3ccc(-c4nnc(C(F)F)o4)cc3)nn2)c1` [Compound 4329, N-(3-(1-(4-(5-(difluoromethyl)-1,3,4-oxadiazol-2-yl)benzyl)-1H-1,2,3-triazol-4-yl)phenyl)-2-(dimethylamino)acetamide], the IC50 at human recombinant HDAC1 is over 50000 nM. Further, at human recombinant HDAC6, the “HDAC6 selectivity (fold)” value is listed as 815 fold and the IC50 is 61.3 nM.

Regarding `Fc1cc(-c2nnc(C(F)F)o2)ccc1Cn1cc(-c2cccc(NC3CCCCC3)c2)nn1` [Compound 4330, N-cyclohexyl-3-(1-(4-(5-(difluoromethyl)-1,3,4-oxadiazol-2-yl)-2-fluorobenzyl)-1H-1,2,3-triazol-4-yl)aniline], the IC50 on human recombinant HDAC1 was over 50000 nM; on human recombinant HDAC6, 186 nM. Also, the “HDAC6 selectivity (fold)” value on human recombinant HDAC6 is recorded as 268 fold.

As to `Fc1cc(-c2nnc(C(F)F)o2)ccc1Cn1cc(-c2cccc(NC3CCOCC3)c2)nn1` [Compound 4331, N-(3-(1-(4-(5-(difluoromethyl)-1,3,4-oxadiazol-2-yl)-2-fluorobenzyl)-1H-1,2,3-triazol-4-yl)phenyl)tetrahydro-2H-pyran-4-amine], the IC50 at human recombinant HDAC1 is over 50000 nM. Further, at human recombinant HDAC6, the “HDAC6 selectivity (fold)” value worked out at 1106 fold and the IC50 is 45.2 nM.

Consider `Fc1cc(-c2nnc(C(F)F)o2)ccc1Cn1cc(-c2cccc(NC3COC3)c2)nn1` [Compound 4332, N-(3-(1-(4-(5-(difluoromethyl)-1,3,4-oxadiazol-2-yl)-2-fluorobenzyl)-1H-1,2,3-triazol-4-yl)phenyl)oxetan-3-amine], for which the IC50 at human recombinant HDAC1 was over 50000 nM; on human recombinant HDAC6, 41.6 nM. Also, the “HDAC6 selectivity (fold)” value on human recombinant HDAC6 was 1201 fold.

Turning to `CN(C)CCC(=O)Nc1cccc(-c2cn(Cc3ccc(-c4nnc(C(F)F)o4)cc3F)nn2)c1` [Compound 4335], the IC50 on human recombinant HDAC1 is over 50000 nM; on human recombinant HDAC6 it was 62.7 nM. Also, on human recombinant HDAC6, the “HDAC6 selectivity (fold)” value turned out to be 797 fold.

Turning to `FC(F)c1nnc(-c2ccc(Cn3cc(-c4cccc(N5CCOCC5)c4)nn3)cc2)o1` [Compound 4338, 4-(3-(1-(4-(5-(difluoromethyl)-1,3,4-oxadiazol-2-yl)benzyl)-1H-1,2,3-triazol-4-yl)phenyl)morpholine], the IC50 was over 50000 nM at human recombinant HDAC1 and 65.3 nM at human recombinant HDAC6. The “HDAC6 selectivity (fold)” value at human recombinant HDAC6 is recorded as 765 fold.

As for `Fc1cc(-c2nnc(C(F)F)o2)ccc1Cn1cc(-c2cccc(N3CCOCC3)c2)nn1` [Compound 4339, 4-(3-(1-(4-(5-(difluoromethyl)-1,3,4-oxadiazol-2-yl)-2-fluorobenzyl)-1H-1,2,3-triazol-4-yl)phenyl)morpholine], the IC50 at human recombinant HDAC1 was over 50000 nM. Also, on human recombinant HDAC6, the “HDAC6 selectivity (fold)” value was 1623 fold and the IC50 was 30.8 nM.
